Data set [1] in a line: Crush strength test (Sintech 1/S compression apparatus). It is filed as physicochemical. Conditions: Table 8, no binder; for Crush Strength (force at breaking point), single tablet / Crush Strength per inch thickness, single tablet: 5 g, 5000 psi, aged 6 days at room temperature. An excerpt: In each test, tablets made from 5 g of blended material were used. […] The apparatus includes a horizontal circular-shaped load cell interfaced with a computer, a digital micrometer also interfaced with the computer, and a vertical screw-driven piston that is disposed above the load cell and adapted to apply a downward force perpendicular to the load cell. The procedure for measuring crush strength involves measuring the thickness of the tablet with the micrometer to provide a digitized input to the computer. Next the tablet is placed on its edge on the load cell with the piston in contact with the upper edge of the tablet. Then the apparatus is activated whereby the piston commences applying a progressively increasing downward diametral force to the tablet. At the same time, the load cell continuously measures the downward force being applied to the tablet, and the input of such measurements is transmitted to the computer. When the force being applied reaches the point where the amount of force suddenly decreases to 10% of the immediately preceding force, the tablet has reached the breaking point, and the application of the force is immediately terminated by the software program. From the inputs to the computer, two values are provided, namely the pounds of force at the breaking point of the tablet, and the pounds of force per inch thickness of the tablet at the breaking point. Thus the greater the force applied, the greater the crush strength. […] When the compacted article is in a form other than a cylindrical tablet (e.g., a granule, caplet, briquette, or puck), the article being tested is to be positioned on the load cell and under the screw-driven piston with the longest axis of the article in the vertical position. In addition, the micrometer is used to measure the thickest portion of the article when the article is positioned on the load cell and under the screw-driven piston with the longest axis of the article in the vertical position.

Data set [2] is described as follows: Compaction test: tablet pressed in die, visual observation on extraction. The format is physicochemical. Conditions: 0.71 inch die, 5000 psi, no dwell time, die dusted with MICROPRO 400; listed as control sample.
A short description of data set [3]: Storage stability at 50° C., wt % active bromine by iodometric titration. The format is physicochemical. The source says:
Three more samples of the blend (5 g each) were compacted in the same manner, and each time a single tablet was extracted from the die after the pressure had been released. The tablets were manually broken into two equally-sized pieces. One half of each tablet was crushed into a powder with a mortar and pestle, and the powder was titrated using the standard, well-known, iodometric method with a starch indicator to determine the wt % of active bromine. The other half of each tablet was placed in a sealed glass vial and placed in an oven at 50° C. After 30 days, the samples were removed from the oven, ground up, and titrated to determine its wt % of active bromine using the same analytical method.

A short description of data set [4]: Granulation through Chilsonator breaker and screens. Conditions: Chilsonator breaker, screens U.S. mesh 12 to 18. It is filed as physicochemical. As to the method: The mixing time was 60 minutes in each case. […] The mixing time was 240 minutes. Each blend was passed through a Chilsonator® breaker (The Fitzpatrick Company, Elmhurst, Ill.) and a set of screens to produce compacted granules of U.S. mesh size 12 to 18. […] Instead, the unblended material exiting the Chilsonator® was mostly loose powder.

Data set [5] in a line: Large tablet compaction, 2.5-inch punch and die, Carver Press. The settings on record: 63.8 g, 2.5-inch die, 5000 psi, no dwell time, silicone oil lubricant.
Method: Tableting operations were carried out using three different samples of 1,3-dibromo-5,5-dimethylhydantoin. In these operations, a 2.5-inch diameter stainless punch and die were used to compact samples weighing 63.8 grams each. […] A thin film of silicone oil lubricant was applied to the internal faces of the punch and die to promote good mold release. A Carver Press was used to apply a pressure of 5000 psi to the material. There was no dwell time, and the pressure was immediately released on obtaining 5000 psi. On extraction from the die, a visual observation of the compacted form was made.
The nature of data set [6]: Naproxen caplet compaction at 25,000 psi. It is filed as physicochemical. Conditions: imprinted stainless steel punch and die, 0.12-inch cross-sectional area. How it is done: A blend of commercially available virgin naproxen powder (Albemarle Corporation, Richmond, Va.) and micronized polyethylene wax (MPP-611; Micro Powders, Inc., Tarrytown, N.Y.) was formed. The blend contained 10 wt % of the micronized wax. Two 250 mg samples and three 318 mg samples of this blend were compacted in an imprinted stainless steel punch and die set of 0.12-inch cross-sectional area. Upon attaining a pressure of 25,000 psi, the pressure was released. […] The caplets were shiny and free of edge-burrs and surface defects. The imprinted lettering from the top punch was clearly impressed into the caplets.
Instead, as the punches were separated, approximately half of the naproxen had stuck to the top punch and the remainder had stuck to the bottom punch.

These results are taken from US6680070B1, “Particulate blends and compacted products formed therefrom, and the preparation thereof” (Albemarle Corporation, priority 2000, dated 2004).

Where “and” joins values, the source holds several entries; their conditions need not be identical. Identical values can stand only once.

As to `CC1(C)C(=O)N(Br)C(=O)N1Br` [Set B], in data set [1] (listed as B), the “Crush Strength (force at breaking point), single tablet” value is 10.7 lb. and 12.8 lb. and 9.8 lb; the “Crush Strength per inch thickness, single tablet” value was 30.4 lb./in. and 36.4 lb./in. and 27.8 lb./in; the “Crush Strength (force at breaking point), average of set” value is 11.1 lb; the “Crush Strength per inch thickness, average of set” value worked out at 31.5 lb./in.

Take `CC1(C)C(=O)N(Br)C(=O)N1Br` [DBDMH - without wax binder]: the “Observations (tablet on extraction from die)” value in data set [2] is “not possible to extract a single tablet from the die”. For the same molecule, the “Wt % Active Bromine, Initial” value in data set [3] (half tablet crushed, iodometric titration) is reported as 55.3 Wt %. Besides, in data set [3] (half tablet in sealed glass vial, oven at 50° C., 30 days), the “Wt % Active Bromine, After 30 days” value came to 55.2 Wt %. For the same molecule, the Compaction into granules result in data set [4] was “did not compact and form granules”. Further, the “Observations (large tablet on extraction from die)” value in data set [5] (listed as Commercial sample without binder) is “Tablet delaminates”.

Consider `CC1(C)C(=O)N(Br)C(=O)N1Br` [Set A], for which, in data set [1] (listed as A), the “Crush Strength (force at breaking point), single tablet” value is 20.9 lb. and 25.5 lb. and 19.2 lb. and 22.8 lb. and 23.7 lb; the “Crush Strength per inch thickness, single tablet” value was 57.3 lb./in. and 69.5 lb./in. and 52.5 lb./in. and 62.1 lb./in. and 65.0 lb./in; the “Crush Strength (force at breaking point), average of set” value came out at 22.4 lb; the “Crush Strength per inch thickness, average of set” value is 61.3 lb./in.

Consider `COc1ccc2cc([C@H](C)C(=O)O)ccc2c1` [naproxen], for which, in data set [6], the Caplet formation entry is “No unbroken caplet of naproxen could be produced”.

In the case of `CC1(C)C(=O)N(Br)C(=O)N1Br`, the “Observations (large tablet on extraction from die)” value in data set [5] is given as “Intact tablet exhibiting”.
